Among the test systems are SF-539 CNS; HCT-116 colon; MDA-N; DU-145 prostate; MDA-MB-435; CAKI-1 renal; SK-MEL-2 melanoma; NCI-H460 lung; HCT-15 colon; UACC-257 melanoma; OVCAR-3 ovarian; COLO 205 colon; RPMI-8226 leukemia; KM12 colon; BT-549 breast; TK-10 renal; NCI-H226 lung; HL-60(TB) leukemia; HT29 colon; NCI/ADR-RES ovarian.
What all share (test): inhibition of tumour cell growth, NCI panel, 48 h

Molecules are shown by their SMILES.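 Assay format: 96-well plates, 48-hour exposure. TGI: concentration producing complete growth inhibition.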

Drawing on PubChem BioAssay (NCI), this text covers TGI for seven molecules.

In the case of `Cc1cc(C)nc(NS(=O)(=O)c2ccc(NNc3c4ccccc4nc4c(C(=O)Nc5ccc(S(=O)(=O)Nc6ncccn6)cc5)cccc34)cc2)n1`, the TGI is 69.4 µM with SF-539 CNS; 39.2 µM with HCT-116 colon; > 100 µM with MDA-N; > 100 µM in the assay on DU-145 prostate; 55.3 µM in the assay on MDA-MB-435; > 100 µM in the assay on CAKI-1 renal. Also, the TGI with SK-MEL-2 melanoma is 43.6 µM; in the assay with NCI-H460 lung, 92 µM; with HCT-15 colon, > 100 µM; in the assay with UACC-257 melanoma, 94.3 µM; in the assay with OVCAR-3 ovarian, 42.2 µM; with COLO 205 colon, 54.3 µM. The TGI in the assay with RPMI-8226 leukemia is 76.8 µM; in the assay on KM12 colon, > 100 µM; in the assay with BT-549 breast, > 100 µM; in the assay on TK-10 renal it was > 100 µM; in the assay on NCI-H226 lung, 53.2 µM; in the assay on HL-60(TB) leukemia it was 62.9 µM. Further, the TGI is 77.4 µM in the assay on HT29 colon and > 100 µM in the assay with NCI/ADR-RES ovarian.

Take `COC(=O)c1c(O)ccc2c1c1c(n2Cc2ccccc2)C(=O)c2ccccc2C1=O`: the TGI in the assay with SF-539 CNS is 29.1 µM; with HCT-116 colon, 27.8 µM; with MDA-N, 56.3 µM; with DU-145 prostate it was 49.9 µM; in the assay on MDA-MB-435, 28 µM; with CAKI-1 renal, 36.9 µM. Further, the TGI in the assay on SK-MEL-2 melanoma was 27.7 µM; in the assay with NCI-H460 lung it was 59.8 µM; with HCT-15 colon, 30.3 µM; in the assay on UACC-257 melanoma, 32.8 µM; with OVCAR-3 ovarian, 47.5 µM; in the assay with COLO 205 colon, 3.32 µM. For the same molecule, the TGI in the assay on RPMI-8226 leukemia was found to be 29.2 µM; in the assay with KM12 colon it was 29.7 µM; in the assay on BT-549 breast, 31.6 µM; in the assay with TK-10 renal, 31.8 µM; in the assay on NCI-H226 lung it was 39.6 µM; in the assay on HL-60(TB) leukemia it was 47.2 µM. Further, the TGI was 22.6 µM in the assay on HT29 colon and 28.8 µM with NCI/ADR-RES ovarian.

Regarding `COC(=O)c1cc2c(o1)Sc1ccccc1NC2=O`, the TGI in the assay with SF-539 CNS, in the assay with HCT-116 colon, with MDA-N, with DU-145 prostate, with MDA-MB-435 and in the assay with CAKI-1 renal was > 100 µM throughout. Also, the TGI in the assay with SK-MEL-2 melanoma, with NCI-H460 lung, with HCT-15 colon, with UACC-257 melanoma, with OVCAR-3 ovarian and with COLO 205 colon was > 100 µM throughout. For the same molecule, the TGI in the assay with RPMI-8226 leukemia, in the assay on KM12 colon, with BT-549 breast, in the assay on TK-10 renal, in the assay on NCI-H226 lung and in the assay with HL-60(TB) leukemia was > 100 µM each time. Besides, the TGI with HT29 colon and in the assay with NCI/ADR-RES ovarian was > 100 µM in each case.

As to `COC(=O)C1=C(O)C(C(=O)OC)[C@]2(O)[C@H](C(=O)OC)[C@H]1C[C@@H](c1ccc(F)cc1)[C@H]2C(=O)OC` (stereo partly drawn), the TGI is 41 µM in the assay with SF-539 CNS; 20.3 µM in the assay on HCT-116 colon; 17.1 µM with MDA-N; 67.6 µM in the assay on DU-145 prostate; 61 µM in the assay with MDA-MB-435; > 100 µM in the assay with CAKI-1 renal. The TGI was 19 µM in the assay on SK-MEL-2 melanoma; 63.1 µM in the assay with NCI-H460 lung; 40.8 µM in the assay on HCT-15 colon; 41.9 µM in the assay with UACC-257 melanoma; 35.5 µM in the assay with OVCAR-3 ovarian; 29.6 µM in the assay with COLO 205 colon. Besides, the TGI in the assay on RPMI-8226 leukemia was determined as 69.7 µM; in the assay on KM12 colon, 47.9 µM; with BT-549 breast it was 65.9 µM; with TK-10 renal, 57.5 µM; in the assay on NCI-H226 lung, 49.9 µM; in the assay on HL-60(TB) leukemia, 7.24 µM. In addition, the TGI in the assay with HT29 colon worked out at 34 µM; in the assay with NCI/ADR-RES ovarian, 36.8 µM.

In the case of `O=C1CC(NC(=O)C(F)(F)F)c2c1csc2Br` (stereo not drawn), the TGI in the assay on SF-539 CNS was > 100 µM; in the assay with HCT-116 colon, > 100 µM; in the assay with MDA-N it was > 100 µM; in the assay on DU-145 prostate, > 100 µM; in the assay on MDA-MB-435 it was > 100 µM; in the assay on CAKI-1 renal it was 30.5 µM. Besides, the TGI in the assay with SK-MEL-2 melanoma, in the assay on NCI-H460 lung, with HCT-15 colon, in the assay on UACC-257 melanoma, in the assay on OVCAR-3 ovarian and with COLO 205 colon was > 100 µM throughout. In addition, the TGI with RPMI-8226 leukemia, in the assay on KM12 colon, in the assay on BT-549 breast, in the assay on TK-10 renal, in the assay on NCI-H226 lung and with HL-60(TB) leukemia was > 100 µM throughout. For the same molecule, the TGI in the assay with HT29 colon and in the assay on NCI/ADR-RES ovarian was > 100 µM each time.

In the case of `Cc1c(C)c2c(c(N)c1C#N)C(=O)N(CCc1ccccc1)C2=O`, the TGI in the assay with SF-539 CNS, in the assay on HCT-116 colon, in the assay on MDA-N, with DU-145 prostate, with MDA-MB-435 and in the assay on CAKI-1 renal was > 100 µM each time. In addition, the TGI in the assay on SK-MEL-2 melanoma, with NCI-H460 lung, with HCT-15 colon, in the assay on UACC-257 melanoma, in the assay with OVCAR-3 ovarian and in the assay on COLO 205 colon was > 100 µM throughout. Further, the TGI in the assay with RPMI-8226 leukemia, in the assay on KM12 colon, in the assay with BT-549 breast, in the assay on TK-10 renal, with NCI-H226 lung and in the assay on HL-60(TB) leukemia was > 100 µM each time. Also, in the assay with NCI/ADR-RES ovarian, the TGI was > 100 µM.

Turning to `N#CC(C#N)N=Cc1ccncc1`, the TGI in the assay on SF-539 CNS, with HCT-116 colon, with MDA-N, in the assay with DU-145 prostate, with MDA-MB-435 and with CAKI-1 renal was > 100 µM each time. For the same molecule, the TGI with SK-MEL-2 melanoma, in the assay with HCT-15 colon, in the assay with UACC-257 melanoma, in the assay with OVCAR-3 ovarian, in the assay on COLO 205 colon and in the assay with RPMI-8226 leukemia was > 100 µM in each case. In addition, the TGI in the assay on KM12 colon, in the assay on BT-549 breast, in the assay on TK-10 renal, in the assay with NCI-H226 lung, with HL-60(TB) leukemia and in the assay with HT29 colon was > 100 µM each time. Besides, the TGI in the assay on NCI/ADR-RES ovarian was > 100 µM.
